In patent US5556859A, “N-(4-pyrimidinyl)amide pesticides” (DowElanco, priority 1994, dated 1996):

Columns and labels:
[1] = test system: tobacco budworm (Heliothis virescens); experiment: Activity against tobacco budworm (TBW); assay type: in vivo; details: 144 h, read-out: percent mortality, TBW
Experimental: In conducting evaluations of insecticidal activity, each test compound was formulated as a 400 ppm solution, and this solution was then diluted with water to give lesser concentrations. The 400 ppm solution was prepared by combining 19.2 mL of 0.05% solution of Tween 20 (polyoxyethylene (20) sorbitan monolaurate) in water with a solution of 8 mg of the compound in 0.8 mL of acetone/EtOH (9/1).
Activity against tobacco budworm (Heliothis virescens) was evaluated as follows. A general purpose lepidoptera artificial diet was diluted to half strength with a 5% non nutritive agar. 8 mL of this diet material was dispensed into each one ounce diet cup. One hour prior to treatment 18 to 20 eggs were dispensed onto the diet surface. The cups were then sprayed with formulated material through a flat-fan nozzle. The test was run using concentrations of 400 ppm and 50 ppm. Treated cups were air dried prior to sealing with plastic caps. The cups were held for 6 days at room temperature. Activity was then rated based on the total number of live and dead larvae, and on the size of live larvae.

[2] = test system: aster leafhopper (Macrosteles fascifrons); experiment: whole plant or invertebrate; details: 24 h, read-out: percent mortality, ALH
[3] = test system: beet armyworm (Spodoptera exiqua); experiment: whole plant or invertebrate; details: 144 h, read-out: percent mortality, BAW
[4] = test system: cotton aphid (Aphis gossypii); experiment: whole plant or invertebrate; details: 72 h, read-out: percent mortality, CA
[5] = test system: peanut root knot nematode (Meloidogyne arenaria); experiment: whole plant or invertebrate; details: in Arachis hypogaea, read-out: percent mortality, RKN
[6] = test system: Southern corn rootworm (Diabrotica undecimpuctata howardi Barber); experiment: whole plant or invertebrate; details: in Zea mays, soil, read-out: percent mortality, SCRW
[7] = test system: two spotted spider mite (Tetranychus urticae); experiment: whole plant or invertebrate; details: 72 h, read-out: percent mortality, TSSM
[8] = test system: German cockroach (Blattella germanicus); experiment: whole plant or invertebrate; details: 240 h, read-out: percent mortality, GECR

SMILES | mortality at 400 ppm [1] | mortality at 400 ppm [2] | mortality at 400 ppm [3] | mortality at 400 ppm [4] | mortality at 400 ppm [5] | mortality at 24 µg/g [6] | mortality at 400 ppm [7] | mortality at 400 ppm [8]
CCc1nccc(NC(=O)Cc2ccc(Oc3ncc(Br)cn3)cc2)n1 [Compound 14, 4-(5-bromo-2-pyrimidinyloxy)phenyl-N-(2-ethyl-4-pyrimidinyl)acetamide] | 80% | 100% | 100% | 100% | 0% | 0% | 0% | 0%
CCc1nccc(NC(=O)Cc2ccc(Oc3ccc([N+](=O)[O-])cc3)cc2)n1 [Compound 53, 4-(4-nitrophenoxy)phenyl-N-(2-ethyl-4-pyrimidinyl)acetamide] | 100% | 90% | 100% | 100% | 100% | 100% | 100% | 80%
O=C(Cc1ccc(Oc2ccc(F)cc2)cc1)Nc1ccnc(Cl)n1 [Compound 54, 4-(4-fluorophenoxy)phenyl-N-(2-chloro-4-pyrimidinyl)acetamide] | 60% | 0% | 100% | 0% | 0% | 0% | 0% | 0%
CCc1nccc(NC(=O)Cc2ccc(OC(F)(F)C(F)F)cc2)n1 [Compound 55, 4-(1,1,2,2-tetrafluoroethoxy)phenyl-N-(2-ethyl-4-pyrimidinyl)acetamide] | 80% | 100% | 100% | 100% | 100% | 100% | 100% | 100%
CC(C)(C)c1nccc(NC(=O)Cc2ccc(Oc3ccc(Cl)cc3)cc2)n1 [Compound 59, 4-(4-chlorophenoxy)phenyl-N-(2-(1,1-dimethylethyl)-4-pyrimidinyl)acetamide] | 100% | 80% | 100% | 100% | 0% | 100% | 0% | 100%
CC(C)(C)c1nccc(NC(=O)Cc2ccc(Oc3ccc(C#N)cc3)cc2)n1 [Compound 60, 4-(4-cyanophenoxy)phenyl-N-(2-(1,1-dimethylethyl)-4-pyrimidinyl)acetamide] | 100% | 100% | 100% | 100% | 100% | 100% | 100% | 100%
CC(C)(C)c1nccc(NC(=O)Cc2ccc(Oc3ccc(C(F)(F)F)cc3)cc2)n1 [Compound 62, 4-(4-trifluoromethylphenoxy)phenyl-N-(2-(1,1-dimethylethyl)-4-pyrimidinyl)acetamide] | 100% | 80% | 100% | 100% | 0% | 100% | 100% | 100%
CCCCc1nccc(NC(=O)Cc2ccc(Oc3ccc(C(F)(F)F)cc3)cc2)n1 [Compound 65, 4-(4-trifluoromethylphenoxy)phenyl-N-(2-butyl-4-pyrimidinyl)acetamide] | 100% | 0% | 100% | 100% | – | 0% | 100% | 100%
O=C(Cc1ccc(Oc2ccc(C(F)(F)F)cc2)cc1)Nc1ccnc(C2CCC2)n1 [Compound 66, 4-(4-trifluoromethylphenoxy)phenyl-N-(2-cyclobutyl-4-pyrimidinyl)acetamide] | 100% | 40% | 100% | 100% | – | 100% | 100% | 100%
Cc1nccc(NC(=O)Cc2ccc(Oc3cccc(C(F)(F)F)c3)cc2)n1 [Compound 69, 4-(3-trifluoromethylphenoxy)phenyl-N-(2-methyl-4-pyrimidinyl)acetamide] | 80% | 40% | 80% | 0% | – | 0% | 0% | 0%
